In publication PMC12190736, “Development and In Vitro Characterization of [^3H]GMC-058 as Radioligand for Imaging Parkinsonian-Related Proteinopathies” (Cells, 2025):

Tests used:
[1] = test system: fresh-frozen human brain sections; experiment: Autoradiography on fresh-frozen brain tissue sections; format: binding; settings: for NSB: 5 µM GMC044; for Specific binding relative to displaceable binding in controls: on average
Method: Selections of frozen human sections (described in Table 2 and Table 3) were used for binding autoradiography. Sections were first pre-incubated for 20 min in binding buffer [50 mM Tris-HCl (pH 7.4), 120 mM NaCl, 5 mM KCl, 2 mM CaCl2, 1 mM MgCl2, and 0.1% BSA] and then incubated with [^3H]GMC-058 (specific activity 22 Ci/mmol); [^3H]GMC-073 (specific activity 23.4 Ci/mmol); or […] in binding buffer for 180 min at RT. In the pilot autoradiography experiment (Figure A1). [^3H]GMC-058 was tested at 25 and 50 nM, while [^3H]GMC-073 and [^3H]GMC-098 were each tested at 10 and 20 nM. For all other autoradiography in fresh-frozen tissue sections, 25 nM [^3H]GMC-058 was used. To determine NSB, adjacent brain sections were incubated with [^3H]-tracer mixed with 5 μM of unlabeled GMC-044. The binding reaction was stopped with two 10 min washes in washing buffer [50 mM Tris-HCl (pH 7.4) at 4 °C] and a brief dip in cold distilled water. Slides were allowed to air-dry before being placed under storage phosphor screens (Fujifilm Plate BAS-TR2025, Fujifilm, Tokyo, Japan) in imaging cassettes for 90 h together with ART0123C and ART0123B tritium standards on glass slides (American Radiolabeled Chemicals Inc., St. Louis, MO, USA). Storage phosphor screens were scanned using an Amersham Typhoon FLA-9500 phosphor imaging scanner (Cytiva, Marlborough, MA, USA), and the resulting images were analyzed using Multi Gauge 3.2 phosphor imager software (Fujifilm, Tokyo, Japan) for ROI delimitation, density calibration, and quantification. Quantitative binding data from duplicates of the total, and NSB were plotted and analyzed using graphPad Prism v10 (GraphPad Software, Boston, MA, USA). Specific binding was determined by subtracting the non-specific signal from the total signal. The toluidine blue staining of adjacent sections was used to obtain anatomical references for white- and gray-matter ROI selection. Care was taken not to include artifact signals in the ROIs analyzed. These artifacts were identified as randomly placed punctate signals appearing in both total and NSB images, and they often coincided with small folds or tears in the tissue sections.

[2] = target: AD, PSP, CBD, MSA-P, PD and control brain homogenates; experiment: Saturation binding assays with [^3H]GMC-058 in brain homogenates
Method: For AD, CBD, PSP, and CT cases, the frozen tissue blocks were prepared as described by Stehouwer et al. [13]. In brief, tissue blocks were thawed and homogenized in ice-cold pH 7.0 phosphate-buffered saline (PBS) at 300 mg/mL on ice using a glass homogenizer, diluted 30-fold with PBS to 10 mg/mL, and homogenized a second time with a Brinkmann Polytron homogenizer before storage at −80 °C.
After incubation, samples were filtered under vacuum on equilibrated GF/B UniFilter plates (PerkinElmer) using the FilterMate 196 (PerkinElmer). Afterwards, filters were washed three times with 250 μL chilled buffer (PBS + 20% EtOH). [^3H]GMC-058 binding was measured with a beta scintillation counter (PerkinElmer). The saturation data was fitted and analyzed using the non-linear regression function of GraphPad Prism 10 software to calculate the dissociation constant (KD) and maximum number of binding sites (Bmax). Scatchard plots were prepared with GraphPad Prism 10 software to display the saturation binding data.

[3] = 25 nM radioligand, gray matter of cingulate cortex, control C03
[4] = 25 nM, PD1, cingulate gyrus, GM
[5] = 25 nM, PD1, cingulate gyrus, WM
[6] = 25 nM, PD2, cingulate gyrus, GM
[7] = 25 nM, PD2, cingulate gyrus, WM
[8] = 25 nM, PD3, cingulate gyrus, GM
[9] = 25 nM, PD3, cingulate gyrus, WM
[10] = 25 nM, non-dementia control C01, cingulate gyrus, GM
[11] = 25 nM, non-dementia control C01, cingulate gyrus, WM
[12] = 25 nM, non-dementia control C02, cingulate gyrus, GM
[13] = 25 nM, non-dementia control C02, cingulate gyrus, WM
[14] = 25 nM, non-dementia control C03, cingulate gyrus, GM
[15] = 25 nM, non-dementia control C03, cingulate gyrus, WM
[16] = 50 nM radioligand, gray matter of cingulate cortex, control C03

Total binding [1, 3]: 57.6 ± 1.8 fmol/mg tissue equivalent
Specific Binding ([1]; 25 nM, CBD1 block 1, SFG, GM): 50 fmol/mg tissue equivalent
Specific Binding ([1]; 25 nM, CBD1 block 1, SFG, WM): 29 fmol/mg tissue equivalent
Specific Binding ([1]; 25 nM, CBD1 block 2, SFG, GM): 32 fmol/mg tissue equivalent
Specific Binding ([1]; 25 nM, CBD1 block 2, SFG, WM): 130 fmol/mg tissue equivalent
Specific binding relative to displaceable binding in controls ([1]; 25 nM, CBD, gray matter of superior frontal gyrus): three-fold
Total binding ([1]; 25 nM, MSA1, cerebellum, GM): 46.9 fmol/mg tissue equivalent
Total binding ([1]; 25 nM, MSA1, cerebellum, WM): 50.1 fmol/mg tissue equivalent
Total binding ([1]; 25 nM, MSA2, cerebellum, GM): 30.3 fmol/mg tissue equivalent
Total binding ([1]; 25 nM, MSA2, cerebellum, WM): 52.5 fmol/mg tissue equivalent
Specific Binding ([1]; 25 nM, MSA3, cerebellum, GM): 26 fmol/mg tissue equivalent
Specific Binding ([1]; 25 nM, MSA3, cerebellum, WM): 21 fmol/mg tissue equivalent
Specific Binding ([1]; 25 nM, MSA4, cerebellum, GM): 23 fmol/mg tissue equivalent
Specific Binding ([1]; 25 nM, MSA4, cerebellum, WM): 49 fmol/mg tissue equivalent
Specific Binding ([1]; 25 nM, NDE C03, cingulate cortex, GM): 15 fmol/mg tissue equivalent
Specific Binding ([1]; 25 nM, NDE C03, cingulate cortex, WM): −2 fmol/mg tissue equivalent
Specific Binding ([1]; 25 nM, NDE C04, caudate, GM): 8 fmol/mg tissue equivalent
Specific Binding ([1]; 25 nM, NDE C04, caudate, WM): −1 fmol/mg tissue equivalent
Specific Binding ([1]; 25 nM, NDE C04, globus pallidus, GM): 10 fmol/mg tissue equivalent
Specific Binding ([1]; 25 nM, NDE C04, globus pallidus, WM): 0 fmol/mg tissue equivalent
Specific Binding ([1]; 25 nM, NDE Co4, putamen, GM): 12 fmol/mg tissue equivalent
Specific Binding ([1]; 25 nM, NDE Co4, putamen, WM): 4 fmol/mg tissue equivalent
Total binding [1, 4]: 55.6 fmol/mg tissue equivalent
Total binding [1, 5]: 52.5 fmol/mg tissue equivalent
Total binding [1, 6]: 16.2 fmol/mg tissue equivalent
Total binding [1, 7]: 55.4 fmol/mg tissue equivalent
Total binding [1, 8]: 59.3 fmol/mg tissue equivalent
Total binding [1, 9]: 55.4 fmol/mg tissue equivalent
Specific Binding ([1]; 25 nM, PSP1, GP, GM): 102 fmol/mg tissue equivalent
Specific Binding ([1]; 25 nM, PSP1, GP, WM): 32 fmol/mg tissue equivalent
Specific Binding ([1]; 25 nM, PSP2, GP, GM): 118 fmol/mg tissue equivalent
Specific Binding ([1]; 25 nM, PSP2, GP, WM): −1 fmol/mg tissue equivalent
Specific binding relative to displaceable binding in controls ([1]; 25 nM, PSP, gray matter of globus pallidus): ten-fold
Total binding [1, 10]: 56.8 fmol/mg tissue equivalent
Total binding [1, 11]: 56.9 fmol/mg tissue equivalent
Total binding [1, 12]: 44.3 fmol/mg tissue equivalent
Total binding [1, 13]: 45.3 fmol/mg tissue equivalent
Total binding [1, 14]: 45.3 fmol/mg tissue equivalent
Total binding [1, 15]: 48.7 fmol/mg tissue equivalent
Specific binding relative to average displaceable binding in gray matter of controls ([1]; 25 nM, two MSA cases, cerebellar gray matter): two-fold higher
Average specific binding ([1]; 25 nM, white matter of MSA and CBD cases): 35 to 80 fmol/mg
Specific Binding ([1]; 25 nM, white matter of control cases): No specific binding
Total binding [1, 16]: 114.1 ± 9.3 fmol/mg tissue equivalent
Binding displaced by GMC-044 ([1]; 5 µM GMC-044, control cingulate cortex tissue): ~ 65%
Binding in control tissue ([1]; cingulate cortex of healthy controls): negligible binding
Kd ([2]; AD brain homogenates): 5.4 nM
Kd ([2]; CBD brain homogenates): > 50 nM
Saturation binding ([2]; PD tissue): No evidence of saturation binding
Kd ([2]; PSP brain homogenates): > 50 nM
Kd ([2]; control brain homogenates): > 100 nM
SMILES: [3H]c1cc(N2CCN(c3ccc(NC(=O)C(C)(C)C)cc3)CC2)ccc1OC [[^3H]GMC-058, N-(4-(4-(4-methoxy-[3-3H]phenyl)piperazin-1-yl)phenyl)pivalamide]
NSB [1, 3]: 37.6 ± 3.8 fmol/mg tissue equivalent
Total Minus NSB [1, 3]: 20 fmol/mg
NSB (5 µM GMC044) ([1]; 25 nM, MSA1, cerebellum, GM): 27.4 fmol/mg tissue equivalent
Total Minus NSB ([1]; 25 nM, MSA1, cerebellum, GM): 19.5 fmol/mg tissue equivalent
NSB (5 µM GMC044) ([1]; 25 nM, MSA1, cerebellum, WM): 33.3 fmol/mg tissue equivalent
Total Minus NSB ([1]; 25 nM, MSA1, cerebellum, WM): 16.8 fmol/mg tissue equivalent
NSB (5 µM GMC044) ([1]; 25 nM, MSA2, cerebellum, GM): 19.9 fmol/mg tissue equivalent
Total Minus NSB ([1]; 25 nM, MSA2, cerebellum, GM): 10.3 fmol/mg tissue equivalent
NSB (5 µM GMC044) ([1]; 25 nM, MSA2, cerebellum, WM): 27.7 fmol/mg tissue equivalent
Total Minus NSB ([1]; 25 nM, MSA2, cerebellum, WM): 24.8 fmol/mg tissue equivalent
NSB (5 µM GMC044) [1, 4]: 42.3 fmol/mg tissue equivalent
Total Minus NSB [1, 4]: 13.3 fmol/mg tissue equivalent
NSB (5 µM GMC044) [1, 5]: 50.6 fmol/mg tissue equivalent
Total Minus NSB [1, 5]: 1.9 fmol/mg tissue equivalent
NSB (5 µM GMC044) [1, 6]: 17.1 fmol/mg tissue equivalent
Total Minus NSB [1, 6]: −0.9 fmol/mg tissue equivalent
NSB (5 µM GMC044) [1, 7]: 53.7 fmol/mg tissue equivalent
Total Minus NSB [1, 7]: 1.6 fmol/mg tissue equivalent
NSB (5 µM GMC044) [1, 8]: 42.0 fmol/mg tissue equivalent
Total Minus NSB [1, 8]: 17.2 fmol/mg tissue equivalent
NSB (5 µM GMC044) [1, 9]: 47.1 fmol/mg tissue equivalent
Total Minus NSB [1, 9]: 8.3 fmol/mg tissue equivalent
Specific binding versus controls ([1]; 25 nM, cingulate cortex of controls and PD patients, cerebellum of MSA patients): did not show clear evidence of specific binding higher than the displaceable (off-target) binding in controls
NSB (5 µM GMC044) [1, 10]: 60.3 fmol/mg tissue equivalent
Total Minus NSB [1, 10]: −3.5 fmol/mg tissue equivalent
NSB (5 µM GMC044) [1, 11]: 59.8 fmol/mg tissue equivalent
Total Minus NSB [1, 11]: −2.9 fmol/mg tissue equivalent
NSB (5 µM GMC044) [1, 12]: 24.6 fmol/mg tissue equivalent
Total Minus NSB [1, 12]: 19.8 fmol/mg tissue equivalent
NSB (5 µM GMC044) [1, 13]: 31.8 fmol/mg tissue equivalent
Total Minus NSB [1, 13]: 13.6 fmol/mg tissue equivalent
NSB (5 µM GMC044) [1, 14]: 28.6 fmol/mg tissue equivalent
Total Minus NSB [1, 14]: 16.7 fmol/mg tissue equivalent
NSB (5 µM GMC044) [1, 15]: 39.0 fmol/mg tissue equivalent
Total Minus NSB [1, 15]: 9.7 fmol/mg tissue equivalent
NSB [1, 16]: 74.6 ± 4.1 fmol/mg tissue equivalent
Total Minus NSB [1, 16]: 40 fmol/mg
